Source: publication doi:10.1101/427617v2 (bioRxiv, 2019)

Columns and labels:
dural lymphatic cells [1] = test: transferrin-AlexaFluor647 uptake, live cell imaging; type: cell-based, rat
dural lymphatic cells [2] = test: pHrodo-dextran uptake, live cell imaging; type: cell-based, rat; settings: 10kD pHrodo-dextran, Dyngo4a at 100-200μM, Fig. 12B, 12D

Row | Compound | Uptake of labeled transferrin by lymphatic cells (dural lymphatic cells [1]) | Effect of inhibitor on pHrodo dextran uptake (dural lymphatic cells [2]) | Effect of inhibitor on transferrin-AlexaFluor647 uptake (dural lymphatic cells [1]; same concentration (100-200μM), Fig. 12C)
1 | transferrin-AlexaFluor647: labeled transferrin used to test clathrin-dependent endocytosis | avidly took up |  | 
2 | O=C(N/N=C/c1cc(O)c(O)cc1O)c1cc2ccccc2cc1O [Dyngo4a] |  | blocked in dose dependent fashion | specifically blocked
3 | CCCCC[C@@H](O)[C@H]1C(=O)O[C@H](C)[C@@H](O)/C=C/C=C/C=C/C=C/C=C(\C)[C@@H](O)C[C@H](O)C[C@H](O)C[C@H](O)C[C@H](O)C[C@H](O)C[C@@H]1O [filipin] |  | blocked uptake | 
